This note sets out measurements from patent publication US8048874B2, “Beta-lactamyl phenylalanine, cysteine, and serine vasopressin antagonists” (Azevan Pharmaceuticals, Inc., priority 2005, dated 2011).

One assay has as its target T1, human V1a receptors (Homo sapiens, UniProt P37288).
T1 construct: expressed in transfected cells; host or cells: CHO cells
The assay is described as follows: Human vasopressin V1a cell-based receptor binding assay (3H-AVP competition). Here is the method: Human or rat vasopression V1a, V1b, and/or V2 cell-based receptor binding assay. The V1a, V1b, and/or V2 cell lines (cells expressing either the human or rat V1a, V1b, and/or V2 receptors) were grown in alpha-MEM medium supplemented with 10% fetal bovine serum and 250 ug/ml G418 (Gibco, Grand Island, N.Y.) in 75 cm^2 flask. For competitive binding assay, hV1b cells were dissociated with enzyme-free, PBS based cell dissociation solution (Specialty Media, Phillipursburg, N.J.), following the manufacturer's protocol. Cells were plated into 12-well culture plates at a rate of one flask to 18 plates (rate should be adjusted according to the extent of confluency), and maintained in culture for 2-3 days. Culture medium was then removed, cells were washed once with 2 ml binding buffer (25 mM Hepes, 0.25% BSA, 1×DMEM, PH=7.0) at room temperature. To each well, 990 ul binding buffer containing 1 nM ^3H-AVP was added, and followed by the addition of 10 ul series diluted testing compounds or cold AVP, all dissolved in DMSO. […] Cells were incubated for 30 min at 37° C. in a moisturized incubator. Assay mixture was then removed and each well was washed three times with PBS (pH=7.4). […] Samples were counted in a liquid scintillation counter (Beckman LS3801). IC50 and Ki values were calculated using Prism Curve fitting software. […]

A further assay deals with T2, human V1b receptors (Homo sapiens, UniProt P47901).
T2 construct: expressed in transfected cells
T2 sequence (P47901 1-424): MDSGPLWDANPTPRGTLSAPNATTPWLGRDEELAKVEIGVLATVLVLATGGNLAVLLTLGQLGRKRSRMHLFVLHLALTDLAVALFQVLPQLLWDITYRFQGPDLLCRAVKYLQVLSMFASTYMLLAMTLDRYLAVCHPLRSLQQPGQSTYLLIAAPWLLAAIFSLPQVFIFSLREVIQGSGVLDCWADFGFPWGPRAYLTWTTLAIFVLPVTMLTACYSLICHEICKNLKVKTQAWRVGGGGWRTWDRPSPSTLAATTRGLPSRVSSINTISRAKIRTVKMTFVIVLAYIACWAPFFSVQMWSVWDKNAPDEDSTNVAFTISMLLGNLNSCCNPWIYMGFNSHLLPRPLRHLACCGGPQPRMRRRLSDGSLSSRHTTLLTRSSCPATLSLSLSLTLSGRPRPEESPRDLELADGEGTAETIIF
The assay is described as follows: Human vasopressin V1b cell-based receptor binding assay (3H-AVP competition). As to conditions: cells expressing human V1b receptor, 1 nM 3H-AVP. An excerpt: Human vasopression VIb receptor-expressing cells. Human vasopressin receptor 1B (HV1B) cDNA (see, Lolait et al., “Extrapituitary expression of the rat V1b vasopressin receptor gene” Proc. Natl. Acad. Sci. USA. 92:6783-7 (1995); de Keyzer et al., “Cloning and characterization of the human V3(V1b) pituitary vasopressin receptor” FEBS Lett. 356:215-20 (1994); Sugimoto et al., “Molecular cloning and functional expression of a cDNA encoding the human V1b vasopressin receptor” J. Biol. Chem. 269:27088-92 (1994)) was inserted into a mammalian cell expression vector PCI-neo (Promega) at EcoR1 site. The recombinant plasmid carrying HV1B cDNA was identified from transformed E. Coli clones and used for the transfection of Chinese hamster ovary cell (CHO-K1, ATCC). Two micrograms of HV1B receptor DNA was introduced into 10^5 CHO cells cultured in 6-well plate, using Fugene-6 mediated transfection technique (Boehringer Mannheim). Twenty-four hrs post transfection, Cells were then cultured under selection of G-418 (0.25 mg/ml) supplemented to the culture medium. Three days later, limited dilution was carried out to obtain single cell clones in 96-well plates. […]
Human or rat vasopression V1a, V1b, and/or V2 cell-based receptor binding assay. […] Samples were counted in a liquid scintillation counter (Beckman LS3801). IC50 and Ki values were calculated using Prism Curve fitting software. […]

What is called Ki is a measure of affinity in units of concentration, obtained from inhibition or displacement. By IC50 is commonly meant the concentration needed to halve the response being measured.

T1 sequence (P37288 whole entry): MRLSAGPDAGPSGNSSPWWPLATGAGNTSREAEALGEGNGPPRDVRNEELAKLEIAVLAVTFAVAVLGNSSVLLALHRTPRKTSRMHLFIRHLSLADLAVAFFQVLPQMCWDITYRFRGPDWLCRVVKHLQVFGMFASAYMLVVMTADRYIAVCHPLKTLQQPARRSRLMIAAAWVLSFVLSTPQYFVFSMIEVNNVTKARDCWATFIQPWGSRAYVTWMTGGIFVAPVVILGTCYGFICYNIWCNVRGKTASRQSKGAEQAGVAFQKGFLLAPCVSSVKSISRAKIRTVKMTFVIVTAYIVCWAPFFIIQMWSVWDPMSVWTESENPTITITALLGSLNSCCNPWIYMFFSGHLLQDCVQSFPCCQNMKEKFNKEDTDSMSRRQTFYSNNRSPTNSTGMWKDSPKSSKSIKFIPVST

Turning to `O=C(C(CSCc1ccccc1)N1C(=O)C(N2C(=O)OCC2c2ccccc2)C1C=Cc1ccccc1)N1CCC(CCN2CCCCC2)CC1` [Example 9B, (2S)-(Benzylthiomethyl)-2-[3(S)-(4(S)-phenyloxazolidin-2-on-3-yl)-4(R)-(2-styryl)azetidin-2-on-1-yl]acetic acid N-[4-[2-(piperid-1-yl)ethyl]piperidin-1-yl]amide], the Ki stood at 0.07 nM at human V1a receptors (FIG. 1, competitive binding assay in CHO cells transfected with human V1a receptor, read-out: human V1b binding affinity (Ki)) and 0.69 µM on human V1b receptors (read-out: Human V1b Binding Affinity (Ki (μM))). Further, the half-maximal inhibitory concentration (IC50) on human V1a receptors (cells expressing human V1a receptor, 1 nM 3H-AVP, read-out: Human V1a Binding Affinity (IC50 (nM))) amounted to 0.11 nM; at human V1b receptors (read-out: Human V1b Binding Affinity (IC50 (μM))), 1.1 µM.
